The source of these data is article PMC8227227 (Viruses, 2021).

The Km is the concentration of substrate that gives half-maximal velocity. By kcat is commonly meant the maximal rate divided by the concentration of active sites. One may read the kcat/Km as the second-order rate constant that governs catalysis at low substrate concentration.

Like-named read-outs stand apart in the source and are kept apart here.

Assay [1] has as its target T1, HIV-1 PR (Human immunodeficiency virus type 1 group M subtype B, UniProt P04585).
T1 construct: assayed as substrates of the HIV-1 protease (PR)
The assay can be described thus: Enzyme assay with synthetic oligopeptide substrates (RP-HPLC). The class given is biochemical, human immunodeficiency virus type 1 (HIV-1). The settings on record: for Km / kcat: Table 3, revertant peptides, 37 °C, 1 h; for Km: 0.25 M potassium phosphate pH 5.6, 7.5% glycerol, 1 mM EDTA, 5 mM DTT, 2 M NaCl, RP-HPLC, Michaelis-Menten fit; for kcat: same buffer, peptides not cleaved at threshold given as estimated kcat < 0.01 s^−1; for kcat/Km: Table 3, specificity constant calculated from the Km and kcat values; for cleavability by HIV-1 PR: threshold estimated kcat < 0.01 s^−1.

The target of assay [2] is T1, HIV-1 PR. The settings on record: values published previously, cited from earlier work.

Regarding “KIVKICFGCGKR [peptide 17, revertant NC-1 cleavage site peptide […]]”, on HIV-1 PR [1], the Km was determined as 70 µM, the kcat was 0.025 s⁻¹ and the kcat/Km was 0.35 mM⁻¹ s⁻¹.
For “RKIVICFGCGKR [peptide 16, revertant NC-1 cleavage site peptide […]]”, in that order: 35 µM, 0.034 s⁻¹ and 0.97 ^5 mM^−1 s^−1.
As for “RKIVICFGCIKR [peptide 19, revertant NC-1 cleavage site peptide […]]”, at HIV-1 PR [1], the Km was less than 10 µM and the kcat is 0.015 s⁻¹.
For the sequence “RKIVKCFGCIKR [peptide 18, revertant NC-1 cleavage site peptide […]]”, at HIV-1 PR [1], the kcat was less than 0.010 s⁻¹ and the “cleavability by HIV-1 PR” value is given as “did not provide a cleavable peptide”.
On to “KIVKCFFCGK [peptide 2, P1′ substituted NC-1 decapeptide […]]”, for which, at HIV-1 PR [2] (Table 2), the Km is 20 µM, the kcat is 0.900 ^1 s^−1 and the kcat/Km is 59.6 ^1 mM^−1 s^−1.
As for “KIVTCFGCGK [peptide 15, revertant NC-1 cleavage site peptide […]]”, at HIV-1 PR [1], the kcat is less than 0.010 s⁻¹ and the “cleavability by HIV-1 PR” value was “did not yield a cleavable peptide”.
As to KIVKCFNCGK [peptide 1], on HIV-1 PR [2] (Table 2), the Michaelis-Menten constant (Km) is 430 µM, the kcat is 0.017 ^1 s^−1 and the kcat/Km is 0.040 ^1 mM^−1 s^−1. For the same sequence, on HIV-1 PR [2] (Table 3, repeated from Table 2), the Km was 430 µM, the kcat is 0.017 s⁻¹ and the kcat/Km is 0.040 mM⁻¹ s⁻¹.
As to “KIVKCFGCGK [peptide 14, P1′ substituted NC-1 decapeptide […]]”, at HIV-1 PR [2] (Table 2), the Km was 1340 µM, the kcat is reported as 0.002 ^1 s^−1 and the kcat/Km is on record as 0.001 ^1 mM^−1 s^−1. For the same sequence, on HIV-1 PR [2] (Table 3, repeated from Table 2), the Km was 1340 µM, the kcat was 0.002 s⁻¹ and the kcat/Km is 0.001 mM⁻¹ s⁻¹.
